From US9914730B2, “Azaquinazoline inhibitors of Atypical protein Kinase C” (Ignyta, Inc., priority 2012, dated 2018)

These compounds were tested against T1, full-length human PKCι (Homo sapiens, UniProt P41743) (assay: PKCι IC50 IMAP assay, full-length PKCι at 150 μM ATP). Conditions: read-out: IC50 in IMAP assay against full length PKCi at 150 μM ATP.
T1 construct: Recombinant, full-length human PKCι expressed in Sf21 insect cells is also commercially available; purchased; host or cells: Sf21 insect cells
T1 sequence (P41743 1-596): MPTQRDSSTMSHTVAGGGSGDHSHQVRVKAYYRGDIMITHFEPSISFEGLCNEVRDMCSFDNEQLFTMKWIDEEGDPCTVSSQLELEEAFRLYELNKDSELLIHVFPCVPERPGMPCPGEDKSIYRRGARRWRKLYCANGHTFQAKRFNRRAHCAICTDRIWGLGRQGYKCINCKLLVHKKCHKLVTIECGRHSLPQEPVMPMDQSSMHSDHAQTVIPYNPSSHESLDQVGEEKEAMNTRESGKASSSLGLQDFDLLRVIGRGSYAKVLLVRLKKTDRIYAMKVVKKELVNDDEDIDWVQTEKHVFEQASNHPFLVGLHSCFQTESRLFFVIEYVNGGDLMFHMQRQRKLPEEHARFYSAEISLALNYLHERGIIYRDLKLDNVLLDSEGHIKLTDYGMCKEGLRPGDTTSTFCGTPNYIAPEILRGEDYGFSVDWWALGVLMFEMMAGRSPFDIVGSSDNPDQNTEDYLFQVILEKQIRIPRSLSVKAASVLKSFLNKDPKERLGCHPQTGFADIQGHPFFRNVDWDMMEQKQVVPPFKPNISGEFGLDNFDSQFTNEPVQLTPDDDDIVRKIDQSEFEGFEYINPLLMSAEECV
Type: biochemical
Excerpt: Assays are based on the ability of PKCι to phosphorylate a commercially available peptide substrate in vitro. The peptide substrate is FAM-PKCε pseudopeptide derived peptide, and comprises the amino acid sequence 5FAM-[…]-NH2. Recombinant, full-length human PKCι expressed in Sf21 insect cells is also commercially available. Recombinant, kinase-domain human PKCι is expressed and purified in-house.
The procedure below explains how dose response curves for inhibitors of PKCι are obtained. The screen described is for a 384 well format but the assay can be adapted to 1536 or other formats as required.
Compounds to be tested are dissolved in 100% DMSO. Compounds are diluted as required to give a final concentration of 4% DMSO (v/v) in the assay. 1 μl is plated into 384 well black low-binding flat bottomed assay plates which are used immediately. Dilutions and additions of compound to assay plates are carried out using Matrix WellMate® and Matrix PlateMate® Plus liquid handling systems.
On the day of the screen PKCι/substrate working solution, and ATP working solution, are prepared in buffer containing 20 mM tris-HCl pH7.5, 10 mM MgCl2, 0.01% Triton X100, 250 μM EGTA and 1 mM DTT. The final concentration of PKCι used varies depending on the batch of protein but is typically 15 pM. The final concentration of peptide substrate in the assay is 100 nM. ATP is used at a final concentration of 150 μM or 25 μM in the assays containing full-length or kinase-domain PKCι respectively, which corresponds to five times or equal to the KM^APP for ATP for each enzyme, respectively. The final buffer concentration in the assay is 18 mM tris-HCl pH7.5, 9 mM MgCl2, 0.009% Triton X100, 225 μM EGTA and 0.9 mM DTT. Relevant controls are included, namely no compound and no enzyme. 5 μl PKCι/substrate working solution at 30 pM and 200 nM, respectively, is added to the wells, followed by 4 μl ATP working solution at 375 μM or 62.5 μM for full-length or kinase-domain PKCι respectively, using a 16 channel Matrix pipette. The reaction is allowed to incubate for 60 minutes at room temperature, before the reaction is stopped and developed by the addition of 20 μl IMAP™ development reagent (Molecular Devices). IMAP development reagent consists of 0.25% (v/v) IMAP progressive binding reagent, 17% (v/v) IMAP progressive binding buffer A and 3% (v/v) IMAP progressive binding buffer B. The plates are then incubated for 2 hours at room temperature before being read using an appropriate plate reader, for example a Molecular Devices HT Analyst or a BMG Pherastar. Plates are read using a fluorescence polarisation protocol with excitation at 485 nm and emission at 530 nm, and dichroic mirror at 505 nm.
Percentage inhibition values are calculated from fluorescence polarisation values, using the no compound and no enzyme control values as 0% and 100% inhibition, respectively. IC50 determination is performed with ExcelFit software (IDBS) using curve fit 205. Z′ factors are determined for each plate tested and are all above 0.5.

“4-{5-(4-Cyano-pyridin-2-ylamino)-2-[2-(4-cyano-pyridin-2-ylamino)-pyridin-4-yl]-pyrido[3,4-d]pyrimidin-4-yl}-piperazine [Example 249]” and `COc1cncc2nc(-c3ccncc3)nc(N3CCN[C@@H](C(O)c4ccc(F)cc4)C3)c12` (mixture of isomers) [Example 77, (4-fluorophenyl) [(2R)-4-[5-methoxy-2-(pyridin-4-yl)-pyrido[3,4-d]-pyrimidin-4-yl]-piperazin-2-yl]-methanol] cannot be ordered by IC50: less than 100 nM for the first, less than 100 nM for the second.

First: COc1cncc2nc(-c3ccnc(Nc4ccccc4)c3)nc(N3CC[C@@H](O)[C@H](O)C3)c12 (racemic) [Example 437, (±)-trans-1-[5-Methoxy-2-(2-phenylamino-pyridin-4-yl)-pyrido[3,4-d]pyrimidin-4-yl]-piperidine-3,4-diol]
Second: N#Cc1ccnc(Nc2cc(-c3nc(N4CCC(O)C(O)C4)c4c(C5CC5)cncc4n3)ccn2)c1 (racemic) [Example 485, (±)-2-{4-[5-Cyclopropyl-4-cis-3,4-dihydroxy-piperidin-1-yl)-pyrido[3,4-d]pyrimidin-2-yl]-pyridin-2-ylamino}-isonicotinonitrile]
The IC50 of the first is higher: 100 to 1000 nM for the first, less than 100 nM for the second.

Compared with `CN1CCN(c2cccc(Nc3cc(-c4nc(N5CC[C@H](O)[C@H](O)C5)c5c(C6CC6)cncc5n4)ccn3)c2)CC1` (racemic) [Example 602, (+/−)-(cis)-1-(5-Cyclopropyl-2-{2-[3-(4-methyl-piperazin-1-yl)-phenylamino]-pyridin-4-yl}-pyrido[3,4-d]pyrimidin-4-yl)-piperidine-3,4-diol], `O[C@@H]1CN(c2nc(-c3ccnc(Nc4ccccc4)c3)nc3cncc(C4CC4)c23)CC[C@@H]1O` (racemic) [Example 675, (+/−)-(cis)-1-[5-Cyclopropyl-2-(2-phenylamino-pyridin-4-yl)-pyrido[3,4-d]pyrimidin-4-yl]-piperidine-3,4-diol] is higher in IC50: less than 100 nM for the first, 100 to 1000 nM for the second.

`O[C@@H]1CCN(c2nc(-c3ccnc(Nc4ccccc4)c3)nc3cncc(C4CC4)c23)C[C@H]1O` (racemic) [Example 676, (+/−)-(trans)-1-[5-Cyclopropyl-2-(2-phenylamino-pyridin-4-yl)-pyrido[3,4-d]pyrimidin-4-yl]-piperidine-3,4-diol] and `N#Cc1ccnc(Nc2cc(-c3nc(N4CC[C@@H](O)[C@H](O)C4)c4c(C5CC5)cncc4n3)ccn2)c1` (racemic) [Example 677, (+/−)-2-{4-[5-Cyclopropyl-4-((trans)-3,4-dihydroxy-piperidin-1-yl)-pyrido[3,4-d]pyrimidin-2-yl]-pyridin-2-ylamino}-isonicotinonitrile] fall in the same range of IC50: 100 to 1000 nM for the first, 100 to 1000 nM for the second.

`CN1CCN(c2cccc(Nc3cc(-c4nc(N5CCC(O)C(O)C5)c5c(C6CC6)cncc5n4)ccn3)c2)CC1` (racemic) [Example 678, (+/−)-(trans)-1-(5-Cyclopropyl-2-{2-[3-(4-methyl-piperazin-1-yl)-phenylamino]-pyridin-4-yl}-pyrido[3,4d]pyrimidin-4-yl)-piperidine-3,4-diol] and `c1cc(-c2nc(N3CCNCC3)c3c(C4CC4)cncc3n2)cc(N[C@@H]2C[C@H]3CC[C@@H]2C3)n1` (racemic) [Example 695, (+/−)-(1RS,2RS,4SR)-Bicyclo[2.2.1]hept-2-yl-[4-(5-cyclopropyl-4-piperazin-1-yl-pyrido[3,4-d]pyrimidin-2-yl)-pyridin-2-yl]-amine] cannot be ordered by IC50: less than 100 nM for the first, less than 100 nM for the second.

`O[C@@H]1CN(c2nc(-c3ccnc4[nH]c(C(F)(F)F)cc34)nc3cncc(C4CC4)c23)CC[C@@H]1O` (racemic) [Example 1234, (+/−)-(cis)-1-[5-Cyclopropyl-2-(2-trifluoromethyl-1H-pyrrolo[2,3-b]pyridin-4-yl)-pyrido[3,4-d]pyrimidin-4-yl]-piperidine-3,4-diol] and `O[C@@H]1CCN(c2nc(-c3ccnc4[nH]c(C(F)(F)F)cc34)nc3cncc(C4CC4)c23)C[C@H]1O` (racemic) [Example 1235, (+/−)-(trans)-1-[5-Cyclopropyl-2-(2-trifluoromethyl-1H-pyrrolo[2,3-b]pyridin-4-yl)-pyrido[3,4-d]pyrimidin-4-yl]-piperidine-3,4-diol] fall in the same range of IC50: 100 to 1000 nM for the first, 100 to 1000 nM for the second.

`O[C@@H]1CN(c2nc(-c3ccnc(Nc4cccc(N5CCOCC5)c4)c3)nc3cncc(C4CC4)c23)CC[C@@H]1O` (racemic) [Example 2005, (+/−)-cis-1-{5-Cyclopropyl-2-[2-(3-morpholin-4-yl-phenylamino)-pyridin-4-yl]-pyrido[3,4-d]pyrimidin-4-yl}-piperidine-3,4-diol] and `c1cc(-c2nc(N3CCNCC3)c3c(C4CC4)cncc3n2)c2cc([C@H]3C[C@H]4CC[C@@H]3C4)[nH]c2n1` (racemic) [Example 2079, (±)-2-((endo)-2-Bicyclo[2.2.1]hept-2-yl-1H-pyrrolo[2,3-b]pyridin-4-yl)-5-cyclopropyl-4-piperazin-1-yl-pyrido[3,4-d]pyrimidine] cannot be ordered by IC50: less than 100 nM for the first, less than 100 nM for the second.

`c1cc(-c2nc(N3CCNCC3)c3c(C4CC4)cncc3n2)cc(N[C@@H]2C[C@H]3CC[C@@H]2O3)n1` (racemic) [Example 2093, (±)-exo-[4-(5-Cyclopropyl-4-piperazin-1-yl-pyrido[3,4-d]pyrimidin-2-yl)-pyridin-2-yl]--7-oxa-bicyclo[2.2.1]hept-2-yl-amine] and `c1cc(-c2nc(N3CCNCC3)c3c(C4CC4)cncc3n2)c2cc([C@@H]3C[C@H]4CC[C@@H]3O4)[nH]c2n1` (racemic) [Example 2121, (±)-exo-5-Cyclopropyl-2-[2-(7-oxa-bicyclo[2.2.1]hept-2-yl)-1H-pyrrolo[2,3-b]pyridin-4-yl]-4-piperazin-1-yl-pyrido[3,4-d]pyrimidine] cannot be ordered by IC50: less than 100 nM for the first, less than 100 nM for the second.

`c1cc(-c2nc(N3CCNCC3)c3c(C4CCC4)cncc3n2)c2cc([C@@H]3C[C@H]4CC[C@@H]3O4)[nH]c2n1` (racemic) [Example 2122, (±)-exo-5-Cyclobutyl-2-[2-(7-oxa-bicyclo[2.2.1]hept-2-yl)-1H-pyrrolo[2,3-b]pyridin-4-yl]-4-piperazin-1-yl-pyrido[3,4-d]pyrimidine] and `c1cc(-c2nc(N3CCNCC3)c3c(C4CCC4)cncc3n2)c2cc([C@H]3C[C@H]4CC[C@@H]3C4)[nH]c2n1` (racemic) [Example 2135, (±)-endo-2-(2-Bicyclo[2.2.1]hept-2-yl-1H-pyrroIo[2,3-b]pyridin-4-yl)-5-cyclobutyl-4-piperazin-1-yl-pyridor3,4-d]pyrimidine] cannot be ordered by IC50: less than 100 nM for the first, less than 100 nM for the second.

First: N#Cc1cccc(Nc2cc(-c3nc(N4CC[C@H](O)[C@H](O)C4)c4c(C5CC5)cncc4n3)ccn2)n1 (relative stereo) [Example 745, 6-{4-[5-Cyclopropyl-4-((cis)-3,4-dihydroxy-piperidin-1-yl)-pyrido[3,4-d]pyrimidin-2-yl]-pyridin-2-ylamino}-pyridine-2-carbonitrile]
Second: O[C@H]1c2ccccc2C[C@@H]1Nc1cc(-c2nc(N3CCNCC3)c3c(C4CC4)cncc3n2)ccn1 (relative stereo) [Example 2158, trans-2-[4-(5-Cyclopropyl-4-piperazin-1-yl-pyrido[3,4-d]pyrimidin-2-yl)-pyridin-2-ylamino]-indan-1-ol]
The IC50 of the first is higher: 100 to 1000 nM for the first, less than 100 nM for the second.
